Measured values from the supplement of paper PMC10307832.

Key:
Assay in all cases: relative viability (nuclei count vs DMSO), 5 days (fraction); higher = more cells survive
201T = system: 201T
Method in brief: (§1)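 For relative viability, nuclei counts in treated wells were divided by those in vehicle wells. Lung cancer cell lines had been pin-tool dosed in 1536-well plates the day after seeding and cultured for 5 days, then fixed and stained in one step (final 0.05% Triton X-100, 1% formaldehyde, 1 ug/ml Hoechst) and imaged at 4×. Doses were one drug alone or a fixed anchor-drug dose plus five library-drug doses (not always all listed) in √10 steps, and values are duplicate-plate medians.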

COR-L 105 = system: COR-L 105
Method in brief: as §1

ChaGo-K-1 = system: ChaGo-K-1
Method in brief: as §1

EKVX = system: EKVX
Method in brief: as §1

H3255 = system: H3255
Method in brief: as §1

HARA = system: HARA
Method in brief: as §1

HCC-827 = system: HCC-827
Method in brief: as §1

HOP-62 = system: HOP-62
Method in brief: as §1

LCLC-103H = system: LCLC-103H
Method in brief: as §1

LOU-NH91 = system: LOU-NH91
Method in brief: as §1

NCI-H1975 = system: NCI-H1975
Method in brief: as §1

NCI-H2126 = system: NCI-H2126
Method in brief: as §1

NCI-H2228 = system: NCI-H2228
Method in brief: as §1

NCI-H23 = system: NCI-H23
Method in brief: as §1

NCI-H2405 = system: NCI-H2405
Method in brief: as §1

NCI-H3122 = system: NCI-H3122
Method in brief: as §1

NCI-H596 = system: NCI-H596
Method in brief: as §1

NCI-H650 = system: NCI-H650
Method in brief: as §1

NCI-H661 = system: NCI-H661
Method in brief: as §1

NCI-H727 = system: NCI-H727
Method in brief: as §1

PC-3 [JPC-3] = system: PC-3 [JPC-3]
Method in brief: as §1

SK-LU-1 = system: SK-LU-1
Method in brief: as §1

SW 900 = system: SW 900
Method in brief: as §1

Cc1cn(-c2cc(NC(=O)c3ccc(C)c(Nc4nccc(-c5cccnc5)n4)c3)cc(C(F)(F)F)c2)cn1 [Nilotinib] + Cc1nc(Nc2ncc(C(=O)Nc3c(C)cccc3Cl)s2)cc(N2CCN(CCO)CC2)n1 [Dasatinib] (partner 0.075 µM)
relative viability (201T; first compound 0.01 µM): 0.404
relative viability (201T; first compound 0.03162 µM): 0.451
relative viability (201T; first compound 0.1 µM): 0.295
relative viability (COR-L 105; first compound 0.001 µM): 0.374
relative viability (COR-L 105; first compound 0.003162 µM): 0.357
relative viability (COR-L 105; first compound 0.01 µM): 0.297
relative viability (COR-L 105; first compound 0.03162 µM): 0.345
relative viability (COR-L 105; first compound 0.1 µM): 0.222
relative viability (ChaGo-K-1; first compound 0.001 µM): 0.521
relative viability (ChaGo-K-1; first compound 0.003162 µM): 0.598
relative viability (ChaGo-K-1; first compound 0.01 µM): 0.634
relative viability (ChaGo-K-1; first compound 0.03162 µM): 0.372
relative viability (ChaGo-K-1; first compound 0.1 µM): 0.331
relative viability (EKVX; first compound 0.001 µM): 0.461
relative viability (EKVX; first compound 0.003162 µM): 0.477
relative viability (EKVX; first compound 0.01 µM): 0.554
relative viability (EKVX; first compound 0.03162 µM): 0.467
relative viability (EKVX; first compound 0.1 µM): 0.432
relative viability (H3255; first compound 0.001 µM): 0.381
relative viability (H3255; first compound 0.003162 µM): 0.325
relative viability (H3255; first compound 0.03162 µM): 0.316
relative viability (H3255; first compound 0.1 µM): 0.304
relative viability (HARA; first compound 0.001 µM): 0.325
relative viability (HARA; first compound 0.003162 µM): 0.345
relative viability (HARA; first compound 0.01 µM): 0.289
relative viability (HARA; first compound 0.03162 µM): 0.178
relative viability (HARA; first compound 0.1 µM): 0.112
relative viability (HCC-827; first compound 0.001 µM): 0.301
relative viability (HCC-827; first compound 0.003162 µM): 0.308
relative viability (HCC-827; first compound 0.01 µM): 0.329
relative viability (HCC-827; first compound 0.03162 µM): 0.283
relative viability (HCC-827; first compound 0.1 µM): 0.284
relative viability (HOP-62; first compound 0.001 µM): 0.603
relative viability (HOP-62; first compound 0.003162 µM): 0.67
relative viability (HOP-62; first compound 0.01 µM): 0.66
relative viability (HOP-62; first compound 0.03162 µM): 0.491
relative viability (HOP-62; first compound 0.1 µM): 0.476
relative viability (LCLC-103H; first compound 0.001 µM): 0.414
relative viability (LCLC-103H; first compound 0.003162 µM): 0.414
relative viability (LCLC-103H; first compound 0.01 µM): 0.51
relative viability (LCLC-103H; first compound 0.03162 µM): 0.338
relative viability (LCLC-103H; first compound 0.1 µM): 0.434
relative viability (LOU-NH91; first compound 0.001 µM): 0.524
relative viability (LOU-NH91; first compound 0.003162 µM): 0.619
relative viability (LOU-NH91; first compound 0.01 µM): 0.569
relative viability (LOU-NH91; first compound 0.03162 µM): 0.489
relative viability (LOU-NH91; first compound 0.1 µM): 0.583
relative viability (NCI-H1975; first compound 0.001 µM): 0.312
relative viability (NCI-H1975; first compound 0.003162 µM): 0.39
relative viability (NCI-H1975; first compound 0.01 µM): 0.309
relative viability (NCI-H1975; first compound 0.03162 µM): 0.318
relative viability (NCI-H1975; first compound 0.1 µM): 0.209
relative viability (NCI-H2126; first compound 0.001 µM): 0.534
relative viability (NCI-H2126; first compound 0.003162 µM): 0.522
relative viability (NCI-H2126; first compound 0.01 µM): 0.513
relative viability (NCI-H2126; first compound 0.03162 µM): 0.5
relative viability (NCI-H2126; first compound 0.1 µM): 0.459
relative viability (NCI-H2228; first compound 0.003162 µM): 0.622
relative viability (NCI-H2228; first compound 0.01 µM): 0.628
relative viability (NCI-H2228; first compound 0.03162 µM): 0.424
relative viability (NCI-H2228; first compound 0.1 µM): 0.159
relative viability (NCI-H23; first compound 0.001 µM): 0.691
relative viability (NCI-H23; first compound 0.003162 µM): 0.681
relative viability (NCI-H23; first compound 0.01 µM): 0.823
relative viability (NCI-H23; first compound 0.03162 µM): 0.309
relative viability (NCI-H23; first compound 0.1 µM): 0.508
relative viability (NCI-H2405; first compound 0.001 µM): 0.219
relative viability (NCI-H2405; first compound 0.003162 µM): 0.205
relative viability (NCI-H2405; first compound 0.01 µM): 0.214
relative viability (NCI-H2405; first compound 0.03162 µM): 0.221
relative viability (NCI-H2405; first compound 0.1 µM): 0.207
relative viability (NCI-H3122; first compound 0.001 µM): 0.719
relative viability (NCI-H3122; first compound 0.003162 µM): 0.91
relative viability (NCI-H3122; first compound 0.01 µM): 0.982
relative viability (NCI-H3122; first compound 0.03162 µM): 0.267
relative viability (NCI-H3122; first compound 0.1 µM): 0.129
relative viability (NCI-H596; first compound 0.001 µM): 0.485
relative viability (NCI-H596; first compound 0.003162 µM): 0.705
relative viability (NCI-H596; first compound 0.01 µM): 0.507
relative viability (NCI-H596; first compound 0.03162 µM): 0.504
relative viability (NCI-H596; first compound 0.1 µM): 0.349
relative viability (NCI-H650; first compound 0.001 µM): 0.462
relative viability (NCI-H650; first compound 0.003162 µM): 0.479
relative viability (NCI-H650; first compound 0.01 µM): 0.49
relative viability (NCI-H650; first compound 0.03162 µM): 0.408
relative viability (NCI-H650; first compound 0.1 µM): 0.379
relative viability (NCI-H661; first compound 0.001 µM): 0.923
relative viability (NCI-H661; first compound 0.003162 µM): 0.956
relative viability (NCI-H661; first compound 0.01 µM): 0.921
relative viability (NCI-H661; first compound 0.03162 µM): 0.635
relative viability (NCI-H661; first compound 0.1 µM): 0.613
relative viability (NCI-H727; first compound 0.001 µM): 0.415
relative viability (NCI-H727; first compound 0.003162 µM): 0.339
relative viability (NCI-H727; first compound 0.01 µM): 0.425
relative viability (NCI-H727; first compound 0.03162 µM): 0.41
relative viability (NCI-H727; first compound 0.1 µM): 0.302
relative viability (PC-3 [JPC-3]; first compound 0.001 µM): 0.95
relative viability (PC-3 [JPC-3]; first compound 0.003162 µM): 1.09
relative viability (PC-3 [JPC-3]; first compound 0.01 µM): 1.1
relative viability (PC-3 [JPC-3]; first compound 0.03162 µM): 0.844
relative viability (PC-3 [JPC-3]; first compound 0.1 µM): 0.528
relative viability (SK-LU-1; first compound 0.001 µM): 0.196
relative viability (SK-LU-1; first compound 0.003162 µM): 0.146
relative viability (SK-LU-1; first compound 0.01 µM): 0.21
relative viability (SK-LU-1; first compound 0.03162 µM): 0.177
relative viability (SK-LU-1; first compound 0.1 µM): 0.177
relative viability (SW 900; first compound 0.001 µM): 0.538
relative viability (SW 900; first compound 0.003162 µM): 0.617
relative viability (SW 900; first compound 0.01 µM): 0.564
relative viability (SW 900; first compound 0.03162 µM): 0.442
relative viability (SW 900; first compound 0.1 µM): 0.315
